The record followed here is patent US20110033376A1, “Treatment of Melanoma” (priority 2007, published 2011).

Series [1] relates to A375 melanoma cells. The series is described as follows: Apo-ONE Homogeneous Caspase-3/7 assay (induction of apoptosis). Format: cell-based, human. As to conditions: A375, 24 hours incubation. As to the method:
(§1) 3 human melanoma cell lines (A375, G-361, WM266-4) were maintained in RPMI 1640 culture medium (Sigma, UK) containing 10% (v/v) heat inactivated foetal bovine serum (Sigma, UK) and 2 mM […] at 37° C. in 5% humidified CO2. Cells were harvested, washed, re-suspended into growth medium and counted (Beckman-Coulter Vi-CELL XR). Cells were plated onto the middle 240 wells of 384 tissue culture plates at 1.6×10^5 to 2.4×10^5 cells/ml in 12.5 μl/well aliquots. 50 μl of growth media was aliquoted into the outer wells. 2 plates were prepared per cell line. Plates were incubated overnight at 37° C., in 5% humidified CO2.
(§2) Dexanabinol was prepared in growth medium at 2 times the final assay concentration at 125, 31.3, 7.81, 2.00, 0.49, 0.12, 0.031 and 0.008 μM (DMSO concentration was kept constant across the dilution range at 0.5%).
(§3) Cisplatin was used as a positive control. The final assays concentrations were 10, 2.5, 0.63, 0.156, 0.039, 0.010, 0.002 and 0.0006 μg/ml. […] 12.5 μl of growth media was added to the media control wells. The plates were incubated for 24 hours at 37° C., in 5% humidified CO2.
(§4) Caspase 3/7 levels were assessed by Apo-ONE© Homogeneous Caspase-3/7 assay kit. Fluorescence was measured using a FlexStation© II^384 plate reader at 1, 2, 3 and 4 hours after addition of the caspase substrate. The 4 hour readings were used for analysis.

Series [2] concerns G-361 melanoma cells. The series is described as above. Type of series: cell-based, human. As to conditions: G-361, 24 hours incubation. The method, then:
as §1, §2, §3, §4

For series [3], the system named is WM266-4 melanoma cells. The series is described as above. Format: cell-based, human. As to conditions: WM266-4, 24 hours incubation; for EC50: caspase 3/7. The method, then: as §1, §2, §3, §4
Series [4] relates to A375 melanoma cells. In words: CellTiter-Blue cell viability assay. Format: cell-based, human. As to conditions: A375, 24 hours incubation; for IC50: CellTiter-Blue. As to the method:
as §1, §2, §3
(§5) The cell viability assay was performed in parallel on the same plate for each line using CellTiter-Blue© (Promega) reagent. Briefly, 25 μl of CellTiter-Blue© (Promega) reagent was added to each well. The plates were shaken for 1 minute at 500 rpm and then incubated at 37° C., 5% CO2 for 4 hours.
On the technique in general: The colour change of resazurin is a common sign of viable cells or microbes.

In series [5] the test system is G-361 melanoma cells. The series is described as follows: CellTiter-Blue cell viability assay. Type of series: cell-based, human. Conditions: G-361, 24 hours incubation; for IC50: CellTiter-Blue. The method, then: as §1, §2, §3, §5
Series [6] concerns WM266-4 melanoma cells. In words: CellTiter-Blue cell viability assay. Format: cell-based, human. Conditions: WM266-4, 24 hours incubation; for IC50: CellTiter-Blue. As to the method: as §1, §2, §3, §5
The test system of series [7] is A375 melanoma cells. The series is described as follows: Sulforhodamine B (SRB) growth inhibition assay. Format: cell-based, human. The method, then: (§6) The ability of dexanabinol to inhibit melanoma cell growth was also studied in 3 melanoma cell lines (A375, UACC62, Malme-3M) using the Sulforhodamine B (SRB) assay.
(§7) Sterile solutions of the final concentrations of dexanabinol were prepared (0.001 μM to 100 μM in 0.5% DMSO).
(§8) The cells were incubated with drug concentrations in 0.5% DMSO (100 μl total volume per well) at 37° C. in 5% CO2 for 5 days. Control wells contained cells plus 0.5% DMSO plus medium.
(§9) The SRB growth inhibition assay was conducted over 24 and 5 day exposure periods. Following exposure, the cells were fixed, stained with SRB and read on a SpectorMax® 250 microplate spectrophotometer system plate reader.

The next series deals with UACC62 melanoma cells. In words: Sulforhodamine B (SRB) growth inhibition assay. Format: cell-based, human. As to conditions: UACC62, 5-day exposure. As to the method:
as §6, §7, §8, §9

The next series deals with Malme-3M melanoma cells. The series is described as follows: Sulforhodamine B (SRB) growth inhibition assay. Type of series: cell-based. As to conditions: Homo sapiens, 120 h, 5-day exposure. As to the method: as §6, §7, §8, §9
The test system of series [8] is A375 melanoma cells. In words: Clonogenic assay, time-course effect on cell proliferation. Type of series: cell-based, human. Conditions: A375, 1 hour vs 24 hours exposure. The method, then: The time-course effect of dexanabinol on cell proliferation in one melanoma cell line, A375, was examined using the clonogenic assay method.
A375 cells were harvested from the growing cell culture and counted. Cells were diluted to 1.0×10^5/ml and seeded 2 ml/well to 6 well plates.
The cells were incubated overnight at 37° C. in humidified incubator 95% air+5% CO2.
The cells were treated with dexanabinol at 4 doses up to 20 μM at 3 exposure periods (1 hour, 6 hours and 24 hours).
After each exposure period, the cells were harvested from the wells by washing twice with PBS then adding 0.2 ml of single strength trypsin to each well and incubating at 37° C. until the cells detached. Cell suspensions were counted at 1/10 dilution and then diluted to 1/10, 1/100, 1/1000.
10 cm dishes (containing 7 ml fresh medium) were seeded with 3 different cell densities for dexanabinol treatment and control treatment. When colonies of suitable size formed in the control dishes, dishes were fixed, stained and counted.
Percentage survival in the dexanabinol treated A375 cells was calculated using the following equation: […]

Series [9] in a line: Preliminary pharmacokinetic (PK) and maximum tolerated dose (MTD) study. As to conditions: CD1 mice. Type of series: in vivo, CD1 A375 tumour-bearing mice. As to the method: (§10) Having established that dexanabinol inhibited melanoma cell proliferation in vitro, we then sought to establish whether the compound was active in vivo. A preliminary pharmacokinetic (PK) and maximum tolerated dose (MTD) study was carried out to determine whether therapeutically effective dose levels of dexanabinol could be achieved in CD1 A375 tumour-bearing mice. […] On the basis of this, a single-dose efficacy study was undertaken. Dexanabinol was diluted in a vehicle of 10% Cremophor/Ethanol (1:1 v/v) in saline. Control mice received vehicle alone.

The test system of series [10] is A375 human tumour xenograft. The series is described as follows: Single-dose efficacy study, human melanoma cell xenograft growth. Format: in vivo. Conditions: single dose 100 mg/kg i.v., CD1 nude mice bearing A375 xenograft. As to the method:
as §10
10 mice received 100 mg/kg i.v. dexanabinol. 10 mice received Vehicle (10 ml/kg) Mice were implanted with 1×10^7 A375 human melanoma cells, in 50 μl of medium, on the flank. Once tumours were palpable (approx 5 mm×5 mm) 20 mice were treated with either dexanabinol or vehicle (as outlined above). […] Tumour size was measured 3 times a week after treatment. The treatment lasted 4 weeks
Background: Xenograft models place foreign cells or tissue in a host animal.

The subject of series [11] is 3 melanoma cell lines (A375, G-361, WM266-4). The series is described as follows: CellTiter-Blue cytotoxic response, summary over 3 melanoma cell lines. Format: cell-based. Conditions: Homo sapiens, 24 h, read-out: IC50 of cytotoxic response. As to the method:
Cells were harvested, washed, re-suspended into growth medium and counted (Beckman-Coulter Vi-CELL XR). […] 50 μl of growth media was aliquoted into the outer wells. 2 plates were prepared per cell line. Plates were incubated overnight at 37° C., in 5% humidified CO2.
The final assays concentrations were 10, 2.5, 0.63, 0.156, 0.039, 0.010, 0.002 and 0.0006 μg/ml. […] 12.5 μl of growth media was added to the media control wells. The plates were incubated for 24 hours at 37° C., in 5% humidified CO2.
The plates were shaken for 1 minute at 500 rpm and then incubated at 37° C., 5% CO2 for 4 hours.

The test system of series [12] is human melanoma cell lines (A375, G-361, WM266-4). In words: Caspase 3/7 apoptosis induction, summary over melanoma cell lines. Format: cell-based. As to the method:
as §1, §2, §3, §4

Series [13] concerns all tested human melanoma cell lines. The series is described as follows: In vitro cell proliferation assays, summary over all tested lines. Type of series: cell-based. The method, then:
as §5, §6, §9

What is called EC50 is the concentration giving half of the maximal effect. A low value points to greater potency. The term IC50 denotes the concentration needed to halve the response being measured. What is called GI50 is the concentration at which growth is held to half of that of the control. A low value points to more potent growth inhibition. Usually MTD stands for the highest dose tested that stayed within the study's limit of toxicity. Read a high MTD as a wide tolerated range.

On to `N.N.[Cl][Pt][Cl]` [Cisplatin], for which the “Rank of apoptosis induction” value was “** (moderate apoptosis induction and decrease in proliferation (35-70%))” in the series with A375 melanoma cells [1]; “** (moderate apoptosis induction and decrease in proliferation (35-70%))” in the series with G-361 melanoma cells [2]; “*** (good apoptosis induction and decrease in proliferation (>70%))” with WM266-4 melanoma cells [3]. Besides, the EC50 is 5.67 µM with A375 melanoma cells [1] (caspase 3/7), 33.3 to 100 µM in the series with G-361 melanoma cells [2] (caspase 3/7) and 33.3 to 100 µM with WM266-4 melanoma cells [3]. In addition, the “Rank of decrease in proliferation (viability)” value is “** (moderate apoptosis induction and decrease in proliferation (35-70%))” in the series with A375 melanoma cells [4]; “** (moderate apoptosis induction and decrease in proliferation (35-70%))” in the series on G-361 melanoma cells [5]; “* (weak apoptosis induction and decrease in proliferation (<35%))” with WM266-4 melanoma cells [6]. Besides, the IC50 in the series on A375 melanoma cells [4] is 21.8 µM; in the series with G-361 melanoma cells [5], 18 µM; in the series on WM266-4 melanoma cells [6] it was 62 µM.

In the case of `CCCCCCC(C)(C)c1cc(O)c2c(c1)OC(C)(C)[C@H]1CC=C(CO)C[C@H]21` [Dexanabinol, 1,1 dimethyl heptyl-(3S,4S)-7-hydroxy-Δ^6-tetrahydrocannabinol], the “Rank of apoptosis induction” value is “ND*** (good apoptosis induction and decrease in proliferation (>70%))” in the series with A375 melanoma cells [1]; “ND* (weak apoptosis induction and decrease in proliferation (<35%))” in the series with G-361 melanoma cells [2]; “*** (good apoptosis induction and decrease in proliferation (>70%))” with WM266-4 melanoma cells [3]. This compound also yielded a 50% effective concentration (EC50) in the series with WM266-4 melanoma cells [3] (Homo sapiens, WM 266-4) of 13 µM. The “Rank of decrease in proliferation (viability)” value in the series on A375 melanoma cells [4] is “** (moderate apoptosis induction and decrease in proliferation (35-70%))”; with G-361 melanoma cells [5] it was “*** (good apoptosis induction and decrease in proliferation (>70%))”; in the series with WM266-4 melanoma cells [6], “** (moderate apoptosis induction and decrease in proliferation (35-70%))”. The IC50 with A375 melanoma cells [4] (Homo sapiens, A-375) was 19.2 µM; in the series with G-361 melanoma cells [5] (Homo sapiens) it was 11 µM; in the series with WM266-4 melanoma cells [6] (Homo sapiens, WM 266-4) it was 20.9 µM; in series [11], 10 to 21 µM. Also, the GI50 in the series with A375 melanoma cells [7] (A375, 5-day exposure) came to 14.4 µM; with A375 melanoma cells [7] (Homo sapiens, A-375, 24 h, A375, 24-hour exposure) it was 14.3 µM; in the series with A375 melanoma cells [7] (Homo sapiens, A-375, 120 h, A375, 5-day exposure), 16.2 µM; in the series with UACC62 melanoma cells (Homo sapiens, UACC-62, 120 h) it was 18.5 µM; in the series on UACC62 melanoma cells it was 18.1 µM; in the series on Malme-3M melanoma cells, 13.3 µM. The “Time dependence of cell killing” value in the series with A375 melanoma cells [8] is listed as “time-independent”. Besides, the Plasma concentration in series [9] (at the MTD, 100 mg/kg i.v. single dose) was 10 µM. This compound also displayed a maximum tolerated dose (MTD) in series [9] (mouse, in vivo, iv, i.v. single dose) of 100 mg/kg. In [10], the “Effect on tumour xenograft growth” value is “growth delaying effect”. The “Concentration of peak response in apoptosis” value in series [12] (24 hours incubation, response dropped at the highest concentration) was found to be 2.5 µM. The “Mode of cell death” value in series [12] (caspase 3/7) was “induced apoptotic cell death in a caspase 3/7 dependent manner”. The “Mean concentration at which profoundly cytotoxic” value in series [13] (all tested human melanoma cell lines) was approximately 14. Also, in series [13] (in vitro), the “Drug concentrations at which in vitro anti-tumour effects were observed” value fell in the range of 10 to 20 µM.
